# Test system: HCC1954 breast cancer cells (HER2+ cell line)
# Test: Antitumor test, subcutaneous HCC1954 breast cancer xenograft, tumor growth inhibition
# Format: in vivo, CB17-SCID mice
# Conditions: AZD4573 monotherapy in the HCC1954 model
# Experimental: Tumor volume was monitored via caliper measurements, and mice were randomized based on mean tumor size. […] All AZD4573 doses were administered IP, 2 hours apart. A BID regimen was used for 10 mg/kg dose, and TID was used for 5 mg/kg dose. AZD4573 dosing was given weekly thereafter for a total of 3 cycles.
# Data represents change in tumor volume over time for treatment groups.
compound,measurement,value
"CC(=O)N[C@@H]1CCC[C@H](C(=O)Nc2cc(-c3cnn4c3CC(C)(C)C4)c(Cl)cn2)C1 [AZD4573, (1S,3R)-3-acetamido-N-(5-chloro-4-(5,5-dimethyl-5,6-dihydro-4H-pyrrolo[1,2-b]pyrazol-3-yl)pyridin-2-yl)cyclohexanecarboxamide]",tumor growth control,minimal tumor growth control

# Source: US20230233540A1, “COMBINATION OF ANTIBODY-DRUG CONJUGATE AND CDK9 INHIBITOR” (AstraZeneca UK Limited, priority 2020, published 2023)
